Experiment [1] deals with A. xylosoxidans butanol dehydrogenase. The experiment in a line: Kinetic characterization of butanol dehydrogenase, reduction of ketone or aldehyde substrates. It counts as biochemical, Achromobacter xylosoxidans. To be noted: 35° C., 50 mM MES pH 6.0, 200 μM NADH. The source says: The secondary alcohol dehydrogenase (sadB) from Achromobacter xylosoxidans was cloned into the vector pTrc99a (Amann et al., Gene 69(2):301-315 (1988)). The coding region (SEQ ID NO: 1) was amplified using standard conditions from A. xylosoxidans genomic DNA, prepared using a Gentra Puregene kit (Gentra Systems, Inc., Minneapolis, Minn.; catalog number D-5500A) following the recommended protocol for gram negative organisms using forward and reverse primers N473 and N469 (SEQ ID NOs: 24 and 23). The PCR product was TOPO-Blunt cloned into pCR4 BLUNT (Invitrogen) to produce pCR4Blunt::sadB, which was used to transform E. coli Mach-1 cells. Plasmid DNA was subsequently isolated from four clones, and the sequence verified. The plasmid was then digested with EcoRI, releasing the sadB fragment, which was ligated with EcoRI-digested pTrc99a to generate pTrc99a::sadB. The E. coli Mach 1 cells were transformed with the plasmid and the resulting transformant was named Mach1/pTrc99a::sadB.

Experiment [2] has as its system butanol dehydrogenase from A. xylosoxidans. In words: Activity stain on non-denaturing polyacrylamide gel (MTT/PMS coupled). It counts as biochemical, Achromobacter xylosoxidans. To be noted: NAD+, MTT, PMS. The source says:
The purified enzyme and molecular weight standards were subjected to electrophoresis using non-denaturing polyacrylamide gels (8-16% Tris-Glycine gradient gel, Invitrogen). After electrophoresis, the gels were removed and stained for protein (Simply Blue Protein Stain, Invitrogen) or stained for activity by coupling the conversion of 1-butanol plus NAD^+ to butyraldehyde plus NADH with the conversion of 3 [4,5-dimethylthiazol-2-yl]-2,5-diphenyltetrazolium bromide (MTT) to a deeply colored formazan, using phenazine methosulfate (PMS) as mediator (Tang et al., J. Bacteriol. 140, 182 (1997)). The activity solution contained 0.5 mg PMS, 5 mg MTT, 20 mg NAD^+ and 1 mL of 1-butanol in a total volume of 25 mL.

Experiment [3] relates to A. xylosoxidans butanol dehydrogenase. To be noted: alcohol substrate (oxidation); 35° C., TRIS buffer pH 8.5, 3 mM NAD+; crude enzyme from A. xylosoxidans. How it is done: Reactions with alcohol substrates were performed at 35° C. in TRIS buffer, pH 8.5, containing 3 mM NAD^+ and varying concentrations of alcohol. Reactions with ketone or aldehyde substrates were performed at 35° C. with 50 mM MES buffer, pH 6.0, 200 μM NADH and varying concentrations of the ketone or aldehyde. Crude enzyme preparations were used, obtained either from A. xylosoxidans or recombinant E. coli strain Mach1/pTrc99a::sadB (described in Example 3 below).

Where [4] appears, read: ketone or aldehyde substrate (reduction), crude enzyme from A. xylosoxidans.
Setting [5] is: aldehyde substrate (reduction), crude enzyme from E. coli strain Mach1/pTrc99a.

Consider 6 compounds from patent publication US9447385B2, “Butanol dehydrogenase enzyme from the bacterium Achromobacter xylosoxidans” (BUTAMAX ADVANCED BIOFUELS LLC, priority 2008, dated 2016).

Read-outs that look alike come from different tables or passages of the source.

As a reminder, the Km is the concentration of substrate that gives half-maximal velocity. The Vmax is the top rate of the reaction or transport when substrate is in excess.

On to `CCC(C)=O` [2-Butanone], for which, in experiment [1] (setting [4]), the Km is 500 µM and the Vmax turned out to be 0.35 µmol/min.

`CC(C)CO` [isobutanol]: the “activity staining of the enzyme band with the alcohol as substrate” value in experiment [2] is on record as “active”.

Turning to `CCC(C)O` (stereo not drawn) [2-Butanol], in experiment [2], the “activity staining of the enzyme band with the alcohol as substrate” value is recorded as “active”. For the same compound, in experiment [3], the Michaelis-Menten constant (Km) turned out to be 300 µM and the maximal velocity (Vmax) stood at 0.22 µmol/min.

Turning to 1-Butanol, in experiment [3], the Km was 4600 µM and the maximum rate (Vmax) is 0.02 µmol/min.

Turning to `CCCC=O` [Butyraldehyde], in experiment [1] (setting [4]), the Michaelis-Menten constant (Km) worked out at 7300 µM and the maximum rate (Vmax) amounted to 0.67 µmol/min.

For the compound `CC(C)C=O` [Isobutyraldehyde], in experiment [1] (setting [5]), the Michaelis constant (Km) came out at 1900 µM and the Vmax worked out at 1.1 µmol/min.
